Patent US12344600B2, “c-Myc mRNA translation modulators and uses thereof in the treatment of cancer” (Anima Biotech Inc., priority 2022, dated 2025)
Starred links: 1 amine or outer side, 2 acyl side, 3 side chain; linkers in the order of their positions; H or OH if unused. Positions of bridges follow the written chain, without caps; N, C: chain ends. Non-standard residues stand in square brackets, D forms with d. Residues, ends and D or L forms follow the SMILES beside them. Chains are numbered I, II in the order given. Actinocin(9to1) = Cc1c2oc3c(C)ccc(C(=O)[*:1])c3nc-2c(C(=O)[*:2])c(N)c1=O; NMeV = CN[C@H](C(=O)O)C(C)C; Sar = CNCC(=O)O

What was measured:
Type in all cases: cell-based, human
[1] = test system: c-Myc; experiment: c-Myc immunofluorescence assay; conditions: A549 cells, 24 hours; for Myc Efficacy (−LogEC50): anti-c-Myc immunofluorescence
Summary of the method: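 Read-out is imaged c-Myc immunofluorescence, nucleus-segmented, in A549 lung carcinoma cells exposed to compound dose series for 24 h after 48 h growth. Fixation 4% paraformaldehyde, Triton permeabilization, antibody staining at room temperature; EC50 from logistic fit of signal versus concentration.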

[2] = test system: c-Myc mRNA; experiment: Fluorescent in situ hybridization (FISH) assay; conditions: A549 cells, 4 hours, FIG. 3 lower panel
Method: A549 cells were incubated with compounds for 24 hours (FIG. 3, upper panel) and c-Myc protein detected by immunofluorescence. In parallel, A549 cells were incubated with compounds for 4 hours and c-Myc mRNA was visualized by microscopy using c-Myc mRNA specific fluorescent-tagged probes (FIG. 3, lower panel).
A549 cells were grown in 384-wells plates (Perkin Elmer, Cat. 6057300) for 48 hours, treated with compounds for 4 hours and then fixed for 20 min in 4% paraformaldehyde. Next day, permeabilization was done for 90 min at 4° C., using 70% ethanol. Then, the cells were incubated for 10 min with 10% formamide in 10% saline-sodium citrate. Fluorescently labeled customer DNA probes that target c-Myc (Cy3, BioSearch Technologies, Cat. SMF-1063-5) and GAPDH (Cy5, BioSearch Technologies, Cat. SMF-2019-1) mRNAs were hybridized overnight at 37° C. in a dark chamber in 10% formamide. The next day, cells were washed twice with 10% formamide for 30 min. […]
Following RNA FISH experiments, images of cells were taken with Operetta (Perkin Elmer, USA), a wide-field fluorescence microscope at ×63 magnification. […] In Columbus, cells were identified by their nucleus, using the “Find Nuceli” module, cytoplasm was detected based on the FISH-channel, and single mRNAs in the cytoplasm and transcription sites in the nucleus were detected using “Find Spots” module. […]

[3] = test system: c-Myc protein; experiment: c-Myc protein level in A549 cells (imaging)
Description: (§1) A549 cells were exposed to vehicle, general transcription inhibitor actinomycin D or anti-c-Myc compound. […] Cell nuclei stained with DAPI, c-Myc protein, c-Myc mRNA and transcription sites are signed on the images.

[4] = test system: c-Myc mRNA; experiment: c-Myc mRNA level and transcription sites in A549 cells (imaging)
Description: as §1

[5] = test system: global protein synthesis; experiment: AHA metabolic labeling in A549 cells
Description: FIG. 2 depicts selective regulation of c-Myc translation. […] Cell nuclei stained with DAPI and AHA metabolic labeling are signed on the images.

[6] = test system: global translation in A549 cells; experiment: Metabolic labeling assay (global translation); conditions: 4 hour pulse, FIG. 2
Method: A549 cells were incubated with active compounds and metabolically labelled with fluorescent methionine for a 4 hour pulse (click-chemistry modified methionine). Cells were fixed and newly synthesized proteins detected by using click-chemistry with a fluorescent detector (FIG. 2).
A549 cells were seeded at 3,200 cells per well in complete culture medium. Plates were incubated at 37° C., 5% CO2 overnight. After 48 hours of incubation, the growth medium was aspirated, and cells were washed three times with HBSS. Metabolic labeling medium DMEM (-Cys -Met), containing 10% dialyzed FBS, 1% penicillin-streptomycin and 1% L-glutamine was added to the cells for 30 min. Then medium was replaced by metabolic labeling medium containing 25 μM L-Azidohomoalanine (AHA, ThermoFisher) and tested compounds at a final concentration of 30 μM, and cells were incubated for 4 hours at 37° C., 5% CO2. Cells were washed by HBSS at 37° C. for 15 min before fixing with 4% paraformaldehyde. Cells were washed twice with 3% BSA in PBS before permeabilization with 0.5% Triton X-100 in PBS for 20 min. The AHA staining with Alexa Fluor™ 555 alkyne was performed according to the manufacturer protocol. Images were captured with Operetta microscope (Perkin Elmer) using ×20 high NA objective lens.

SMILES: COc1ccc(-c2noc(N3CCC(C(=O)NC[C@@H]4CCN(C[C@H]5CCCN(C)C5)C4)CC3)n2)cc1 [Compound 466, 1-(3-(4-methoxyphenyl)-1,2,4-oxadiazol-5-yl)-N-(((S)-1-(((S)-1-methylpiperidin-3-yl)methyl)pyrrolidin-3-yl)methyl)piperidine-4-carboxamide]
- Myc Efficacy (−LogEC50) [1]: + (+ >3 and <5)

SMILES: CN1CCC[C@H](CN2CCC(CNC(=O)C3CCN(c4nc(-c5ccc(C#N)cc5)no4)CC3)C2)C1 (stereo partly drawn) [Compound 467, 1-(3-(4-cyanophenyl)-1,2,4-oxadiazol-5-yl)-N-((1-(((S)-1-methylpiperidin-3-yl)methyl)pyrrolidin-3-yl)methyl)piperidine-4-carboxamide]
- Myc Efficacy (−LogEC50) [1]: + (+ >3 and <5)

SMILES: CN1CCC[C@H](CN2CCC(CNC(=O)C3CCN(c4nc(-c5ccc(Cl)cc5)no4)CC3)C2)C1 (stereo partly drawn) [Compound 468, 1-(3-(4-chlorophenyl)-1,2,4-oxadiazol-5-yl)-N-((1-(((S)-1-methylpiperidin-3-yl)methyl)pyrrolidin-3-yl)methyl)piperidine-4-carboxamide]
- Myc Efficacy (−LogEC50) [1]: ++ (++ ≥5 and <6)

SMILES: Cc1ccc(CN2CCC(CNC(=O)N3CCN(c4nc(-c5ccc(OCC(O)CO)cc5)no4)CC3)C2)cc1 (stereo not shown) [Compound 473, 4-(3-(4-(2,3-dihydroxypropoxy)phenyl)-1,2,4-oxadiazol-5-yl)-N-((1-(4-methylbenzyl)pyrrolidin-3-yl)methyl)piperazine-1-carboxamide]
- Myc Efficacy (−LogEC50) [1]: + (+ >3 and <5)

SMILES: CN1CCC[C@@H](CN2CC[C@@H](CNC(=O)C3CCN(c4nc(-c5ccc(Cl)cc5)no4)CC3)C2)C1 [Compound 474, 1-(3-(4-chlorophenyl)-1,2,4-oxadiazol-5-yl)-N-(((S)-1-(((R)-1-methylpiperidin-3-yl)methyl)pyrrolidin-3-yl)methyl)piperidine-4-carboxamide]
- Myc Efficacy (−LogEC50) [1]: ++ (++ ≥5 and <6)

SMILES: CN1CCC[C@@H](CN2CC[C@H](CNC(=O)C3CCN(c4nc(-c5ccc(Cl)cc5)no4)CC3)C2)C1 [Compound 475, 1-(3-(4-chlorophenyl)-1,2,4-oxadiazol-5-yl)-N-(((R)-1-(((R)-1-methylpiperidin-3-yl)methyl)pyrrolidin-3-yl)methyl)piperidine-4-carboxamide]
- Myc Efficacy (−LogEC50) [1]: ++ (++ ≥5 and <6)

SMILES: Cc1c2oc3c(C)ccc(C(=O)N[C@@H]4C(=O)N[C@H](C(C)C)C(=O)N5CCC[C@H]5C(=O)N(C)CC(=O)N(C)[C@@H](C(C)C)C(=O)O[C@@H]4C)c3nc-2c(C(=O)N[C@@H]2C(=O)N[C@H](C(C)C)C(=O)N3CCC[C@H]3C(=O)N(C)CC(=O)N(C)[C@@H](C(C)C)C(=O)O[C@@H]2C)c(N)c1=O [actinomycin D] (I: T[dV]P[Sar][NMeV] / II: T[dV]P[Sar][NMeV]; ester I:1-I:C, II:1-II:C; linker I:N-II:N via Actinocin(9to1))
- c-Myc protein by immunofluorescence ([1]; FIG. 3 upper panel): reduced c-Myc protein
- c-Myc mRNA in the cytoplasm [2]: inhibited
- c-Myc transcription site (spots inside the nucleus) [2]: inhibited transcription site
- c-Myc protein level [3]: significant decrease
- c-Myc mRNA level as well as transcription sites [4]: complete reduction

SMILES: C[C@@H]1C[C@@H]([C@H](O)CC2CC(=O)NC(=O)C2)C(=O)[C@@H](C)C1 [cycloheximide]
- global protein synthesis (AHA metabolic labeling) [5]: total inhibition
- incorporation of modified methionine (global translation) [6]: completely reduced incorporation of modified methionine
